{"source": "patent US8697641B2", "about": "“4-amino-4-oxobutanoyl peptide cyclic analogues, inhibitors of viral replication” (Achillion Pharmaceuticals, Inc., priority 2008, dated 2014)"}
{"test_system": "Hepatitis C replicon", "assay": "HCV replicon assay (NPT ELISA readout) in Huh-7 replicon-containing cells", "assay_type": "cell-based, Hepatitis C virus", "details": "Hepatitis C virus, 72 h; HCV replicon in Huh-7 cells, three days incubation", "procedure,_shortened": "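Huh-7 cells carrying a neo-containing HCV subgenomic replicon (NS3-NS5B) were plated overnight, then exposed to compound (generally 6 concentrations, 10 to 0.03 μM) for three days at 37 °C. Replication was read as NPT level by captured ELISA; interferon alpha served as positive control.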", "units": {"EC50": "nM"}}
{"molecule": "COc1ccc2c(O[C@@H]3C[C@H]4C(=O)N[C@]5(C(=O)NS(=O)(=O)C6CC6)C[C@H]5/C=C\\CCCCC[C@H](CC(=O)N5CCCC5C(F)(F)F)C(=O)N4C3)cc(-c3ccccn3)nc2c1Cl", "note": "(stereo partly drawn) [Compound 95, (2R,6R,14aR,16aS,Z)-2-(8-chloro-7-methoxy-2-(pyridin-2-yl)quinolin-4-yloxy)-N-(cyclopropylsulfonyl)-5,16-dioxo-6-(2-oxo-2-(2-(trifluoromethyl)pyrrolidin-1-yl)ethyl)-1,2,3,5,6,7,8,9,10,11, 13a,14,14a,15,16,16a-hexadecahydrocyclopropa [e]pyrrolo[1,2-a][1,4] diazacyclopentadecine-14a-carboxamide]", "EC50": "< 1000"}
{"molecule": "COc1ccc2nc(-c3ccccn3)cc(C(=O)N[C@@H]3C[C@H]4C(=O)N[C@]5(C(=O)NS(=O)(=O)C6CC6)C[C@H]5/C=C\\CCCCC[C@H](CC(=O)N5CCCCC5)C(=O)N4C3)c2c1", "note": "[Compound 96, (2R,6R,14aR,16aS,Z)-N-(cyclopropylsulfonyl)-2-(6-methoxy-2-(pyridin-2-yl)quinoline-4-carboxamido)-5,16-dioxo-6-(2-oxo-2-(piperidin-1-yl)ethyl)-1,2,3,5,6,7,8,9,10,11, 13a,14,14a,15,16,16a-hexadecahydrocyclopropa [e]pyrrolo[1,2-a][1,4] diazacyclopentadecine-14a-carboxamide]", "EC50": "< 1000"}
{"molecule": "COc1ccc2nc(-c3ccccn3)cc(C(=O)N[C@@H]3C[C@H]4C(=O)N[C@]5(C(=O)NS(=O)(=O)C6CC6)C[C@H]5/C=C\\CCCCC[C@H](CC(=O)N5CCC(F)(F)CC5)C(=O)N4C3)c2c1", "note": "[Compound 97, (2R,6R,14aR,16aS,Z)-N-(cyclopropylsulfonyl)-6-(2-(4,4-difluoropiperidin-1-yl)-2-oxoethyl)-2-(6-methoxy-2-(pyridin-2-yl)quinoline-4-carboxamido)-5,16-dioxo-1,2,3,5,6,7,8,9,10,11, 13a,14,14a,15,16,16a-hexadecahydrocyclopropa [e]pyrrolo[1,2-a][1,4] diazacyclopentadecine-14a-carboxamide]", "EC50": "< 1000"}
{"molecule": "COc1ccc2nc(-c3ccccn3)cc(C(=O)N[C@@H]3C[C@H]4C(=O)N[C@]5(C(=O)NS(=O)(=O)C6CC6)C[C@H]5/C=C\\CCCCC[C@H](CC(=O)N5CCC(F)(F)C5)C(=O)N4C3)c2c1", "note": "[Compound 98, (2R,6R,14aR,16aS,Z)-N-(cyclopropylsulfonyl)-6-(2-(3,3-difluoropyrrolidin-1-yl)-2-oxoethyl)-2-(6-methoxy-2-(pyridin-2-yl)quinoline-4-carboxamido)-5,16-dioxo-1,2,3,5,6,7,8,9,10,11, 13a,14,14a,15,16,16a-hexadecahydrocyclopropa [e]pyrrolo[1,2-a][1,4] diazacyclopentadecine-14a-carboxamide]", "EC50": "< 1000"}
{"molecule": "COc1ccc2c(O[C@@H]3C[C@H]4C(=O)N[C@]5(C(=O)NS(=O)(=O)C6CC6)C[C@H]5/C=C\\CCCCC[C@H](CC(=O)N5[C@H](C)CCC[C@@H]5C)C(=O)N4C3)cc(-c3ccccc3)nc2c1", "note": "[Compound 99, (2R,6R,14aR,16aS,Z)-N-(cyclopropylsulfonyl)-6-(2-((2R,6S)-2,6-dimethylpiperidin-1-yl)-2-oxoethyl)-2-(7-methoxy-2-phenylquinolin-4-yloxy)-5,16-dioxo-1,2,3,5,6,7,8,9,10,11, 13a,14,14a,15,16,16a-hexadecahydrocyclopropa [e]pyrrolo[1,2-a][1,4] diazacyclopentadecine-14a-carboxamide]", "EC50": "< 1000"}
{"molecule": "COc1ccc2c(O[C@@H]3C[C@H]4C(=O)N[C@]5(C(=O)NS(=O)(=O)C6CC6)C[C@H]5/C=C\\CCCCC[C@H](CC(=O)N5CCCC(F)C5)C(=O)N4C3)cc(-c3ccccn3)nc2c1Cl", "note": "(stereo partly drawn) [Compound 100, (2R,6R,14aR,16aS,Z)-2-(8-chloro-7-methoxy-2-(pyridin-2-yl)quinolin-4-yloxy)-N-(cyclopropylsulfonyl)-6-(2-(3-fluoropiperidin-1-yl)-2-oxoethyl)-5,16-dioxo-1,2,3,5,6,7,8,9,10,11, 13a,14,14a,15,16,16a-hexadecahydrocyclopropa [e]pyrrolo[1,2-a][1,4] diazacyclopentadecine-14a-carboxamide]", "EC50": "< 1000"}
{"molecule": "COc1ccc2c(O[C@@H]3C[C@H]4C(=O)N[C@]5(C(=O)NS(=O)(=O)C6CC6)C[C@H]5/C=C\\CCCCC[C@H](CC(=O)N5CCC(F)CC5)C(=O)N4C3)cc(-c3ccccn3)nc2c1Cl", "note": "[Compound 101, (2R,6R,14aR,16aS,Z)-2-(8-chloro-7-methoxy-2-(pyridin-2-yl)quinolin-4-yloxy)-N-(cyclopropylsulfonyl)-6-(2-(4-fluoropiperidin-1-yl)-2-oxoethyl)-5,16-dioxo-1,2,3,5,6,7,8,9,10,11, 13a,14,14a,15,16,16a-hexadecahydrocyclopropa [e]pyrrolo[1,2-a][1,4] diazacyclopentadecine-14a-carboxamide]", "EC50": "< 1000"}
{"molecule": "COc1ccc2c(O[C@@H]3C[C@H]4C(=O)N[C@]5(C(=O)NS(=O)(=O)C6CC6)C[C@H]5/C=C\\CCCCC[C@H](CC(=O)N5CC[C@H](N)C5)C(=O)N4C3)cc(-c3ccccc3)nc2c1", "note": "[Compound 102, (2R,6R,14aR,16aS, Z)-6-(2-((S)-3-aminopyrrolidin-1-yl)-2-oxoethyl)-N-(cyclopropylsulfonyl)-2-(7-methoxy-2-phenylquinolin-4-yloxy)-5,16-dioxo-1,2,3,5,6,7,8,9,10,11, 13a,14,14a,15,16,16a-hexadecahydrocyclopropa [e]pyrrolo[1,2-a][1,4] diazacyclopentadecine-14a-carboxamide]", "EC50": "< 1000"}
{"molecule": "COc1ccc2c(O[C@@H]3C[C@H]4C(=O)N[C@]5(C(=O)NS(=O)(=O)C6CC6)CC5/C=C\\CCCCC[C@H](CC(=O)N5CC[C@@H](CNC(=O)OC(C)(C)C)C5)C(=O)N4C3)cc(-c3ccccc3)nc2c1", "note": "(stereo partly drawn) [Compound 103, tert-butyl ((3S)-1-(2-((2R,6R,14aR,16aS,Z)-14a-(cyclopropylsulfonyl-carbamoyl)-2-(7-methoxy-2-phenylquinolin-4-yloxy)-5,16-dioxo-1,2,3,5,6,7,8,9,10,11, 13a,14,14a,15,16,16a-hexadecahydrocyclopropa [e]pyrrolo[1,2-a][1,4]diazacyclopentadecin-6-yl)acetyl)pyrrolidin-3-yl)methylcarbamate]", "EC50": "< 1000"}
{"molecule": "COc1ccc2c(O[C@@H]3C[C@H]4C(=O)N[C@]5(C(=O)NS(=O)(=O)C6CC6)C[C@H]5/C=C\\CCCCC[C@H](CC(=O)N5CC[C@@H](CN)C5)C(=O)N4C3)cc(-c3ccccc3)nc2c1", "note": "[Compound 105, (2R,6R,14aR,16aS, Z)-6-(2-((S)-3-(aminomethyl)pyrrolidin-1-yl)-2-oxoethyl)-N-(cyclopropylsulfonyl)-2-(7-methoxy-2-phenylquinolin-4-yloxy)-5,16-dioxo-1,2,3,5,6,7,8,9,10,11, 13a,14,14a,15,16,16a-hexadecahydrocyclopropa [e]pyrrolo[1,2-a][1,4] diazacyclopentadecine-14a-carboxamide]", "EC50": "< 1000"}
{"molecule": "COc1ccc2c(O[C@@H]3C[C@H]4C(=O)N[C@]5(C(=O)NS(=O)(=O)C6CC6)C[C@H]5/C=C\\CCCCC[C@H](CC(=O)N5CC[C@@H](N)C5)C(=O)N4C3)cc(-c3ccccc3)nc2c1", "note": "[Compound 106, (2R,6R,14aR,16aS, Z)-6-(2-((R)-3-aminopyrrolidin-1-yl)-2-oxoethyl)-N-(cyclopropylsulfonyl)-2-(7-methoxy-2-phenylquinolin-4-yloxy)-5,16-dioxo-1,2,3,5,6,7,8,9,10,11, 13a,14,14a,15,16,16a-hexadecahydrocyclopropa [e]pyrrolo[1,2-a][1,4] diazacyclopentadecine-14a-carboxamide]", "EC50": "< 1000"}
{"molecule": "COc1ccc2c(O[C@@H]3C[C@H]4C(=O)N[C@]5(C(=O)NS(=O)(=O)C6CC6)C[C@H]5/C=C\\CCCCC[C@H](CC(=O)N5CC[C@@H](C(C)(C)N)C5)C(=O)N4C3)cc(-c3ccccc3)nc2c1", "note": "[Compound 107, (2R,6R,14aR,16aS, Z)-6-(2-((R)-3-(2-aminopropan-2-yl)pyrrolidin-1-yl)-2-oxoethyl)-N-(cyclopropylsulfonyl)-2-(7-methoxy-2-phenylquinolin-4-yloxy)-5,16-dioxo-1,2,3,5,6,7,8,9,10,11, 13a,14,14a,15,16,16a-hexadecahydrocyclopropa [e]pyrrolo[1,2-a][1,4] diazacyclopentadecine-14a-carboxamide]", "EC50": "< 1000"}
{"molecule": "COc1ccc2c(O[C@@H]3C[C@H]4C(=O)N[C@]5(C(=O)NS(=O)(=O)C6CC6)C[C@H]5/C=C\\CCCCC[C@H](CC(=O)N5CC[C@H](O)C5)C(=O)N4C3)cc(-c3ccccc3)nc2c1", "note": "[Compound 108, (2R,6R,14aR,16aS,Z)-N-(cyclopropylsulfonyl)-6-(2-((S)-3-hydroxypyrrolidin-1-yl)-2-oxoethyl)-2-(7-methoxy-2-phenylquinolin-4-yloxy)-5,16-dioxo-1,2,3,5,6,7,8,9,10,11, 13a,14,14a,15,16,16a-hexadecahydrocyclopropa [e]pyrrolo[1,2-a][1,4] diazacyclopentadecine-14a-carboxamide]", "EC50": "< 1000"}
{"molecule": "COc1ccc2c(O[C@@H]3C[C@H]4C(=O)N[C@]5(C(=O)NS(=O)(=O)C6CC6)C[C@H]5/C=C\\CCCCC[C@H](CC(=O)N[C@@H]5CCNC5)C(=O)N4C3)cc(-c3ccccc3)nc2c1", "note": "[Compound 109, (2R,6R,14aR,16aS,Z)-N-(cyclopropylsulfonyl)-2-(7-methoxy-2-phenylquinolin-4-yloxy)-5,16-dioxo-6-(2-oxo-2-((R)-pyrrolidin-3-ylamino)ethyl)-1,2,3,5,6,7,8,9,10,11, 13a,14,14a,15,16,16a-hexadecahydrocyclopropa [e]pyrrolo[1,2-a][1,4] diazacyclopentadecine-14a-carboxamide]", "EC50": "< 1000"}
